According to US20240376163A1, “PEPTIDE FOR INHIBITING CALCINEURIN AND USE THEREOF” (Seoul National University R&DB Foundation, priority 2023, published 2024):

System: Jurkat T cells
Assay: mRNA sequencing of activated Jurkat T cells
Type: cell-based, human
Details: P + I

PEITVTPPTP [CABIN1-L-1-2]
MSMO1 FPKM (Jurkat T cells): 52.664 FPKM
MT2A FPKM (Jurkat T cells): 409.501 FPKM
MXD3 FPKM (Jurkat T cells): 20.08 FPKM
MYB FPKM (Jurkat T cells): 48.107 FPKM
MZB1 FPKM (Jurkat T cells): 23.597 FPKM
N4BP3 FPKM (Jurkat T cells): 2.499 FPKM
NAA16 FPKM (Jurkat T cells): 3.877 FPKM
NCKAP1 FPKM (Jurkat T cells): 10.157 FPKM
NCOA3 FPKM (Jurkat T cells): 11.775 FPKM
NDRG1 FPKM (Jurkat T cells): 128.386 FPKM
NDRG2 FPKM (Jurkat T cells): 2.149 FPKM
NEDD9 FPKM (Jurkat T cells): 4.972 FPKM
NFATC1 FPKM (Jurkat T cells): 3.916 FPKM
NFKB1 FPKM (Jurkat T cells): 44.661 FPKM
NFKB2 FPKM (Jurkat T cells): 71.869 FPKM
NLRC3 FPKM (Jurkat T cells): 5.507 FPKM
NME4 FPKM (Jurkat T cells): 17.501 FPKM
NOTCH2 FPKM (Jurkat T cells): 12.916 FPKM
NOTCH3 FPKM (Jurkat T cells): 0.859 FPKM
NPDC1 FPKM (Jurkat T cells): 5.64 FPKM
NR4A3 FPKM (Jurkat T cells): 1.977 FPKM
NREP FPKM (Jurkat T cells): 6.879 FPKM
NRP1 FPKM (Jurkat T cells): 14.016 FPKM
NSG1 FPKM (Jurkat T cells): 3.929 FPKM
NSMF FPKM (Jurkat T cells): 3.265 FPKM
NT5E FPKM (Jurkat T cells): 12.217 FPKM
NTRK1 FPKM (Jurkat T cells): 1.657 FPKM
ODC1 FPKM (Jurkat T cells): 374.309 FPKM
OPTN FPKM (Jurkat T cells): 14.333 FPKM
OSBPL5 FPKM (Jurkat T cells): 3.123 FPKM
PAM FPKM (Jurkat T cells): 1.934 FPKM
PCNA-AS1 FPKM (Jurkat T cells): 71.806 FPKM
PDCD1 FPKM (Jurkat T cells): 1.974 FPKM
PDGFA FPKM (Jurkat T cells): 8.169 FPKM
PDGFC FPKM (Jurkat T cells): 2.913 FPKM
PDIA6 FPKM (Jurkat T cells): 128.39 FPKM
PDLIM1 FPKM (Jurkat T cells): 5.135 FPKM
PELI2 FPKM (Jurkat T cells): 8.166 FPKM
PEX5L FPKM (Jurkat T cells): 1.299 FPKM
PHACTR2 FPKM (Jurkat T cells): 2.791 FPKM
PHLDB2 FPKM (Jurkat T cells): 3.404 FPKM
PI16 FPKM (Jurkat T cells): 9.625 FPKM
PKIG FPKM (Jurkat T cells): 11.17 FPKM
PKM FPKM (Jurkat T cells): 1838.428 FPKM
PLAC8 FPKM (Jurkat T cells): 1.896 FPKM
PLEC FPKM (Jurkat T cells): 25.453 FPKM
PLS3 FPKM (Jurkat T cells): 0.37 FPKM
POTEE FPKM (Jurkat T cells): 1.196 FPKM
POU2AF1 FPKM (Jurkat T cells): 2.971 FPKM
POU2F2 FPKM (Jurkat T cells): 4.109 FPKM
PPIF FPKM (Jurkat T cells): 106.533 FPKM
PPP1R15A FPKM (Jurkat T cells): 76.265 FPKM
PPP1R16B FPKM (Jurkat T cells): 26.306 FPKM
PRDM8 FPKM (Jurkat T cells): 40.783 FPKM
PRNP FPKM (Jurkat T cells): 41.922 FPKM
PSMB10 FPKM (Jurkat T cells): 125.268 FPKM
PTPN6 FPKM (Jurkat T cells): 20.806 FPKM
PTPN7 FPKM (Jurkat T cells): 78.61 FPKM
PXYLP1 FPKM (Jurkat T cells): 4.92 FPKM
QPRT FPKM (Jurkat T cells): 10.818 FPKM
RAB37 FPKM (Jurkat T cells): 1.369 FPKM
RASGRP1 FPKM (Jurkat T cells): 3.909 FPKM
RASGRP2 FPKM (Jurkat T cells): 2.335 FPKM
RB1 FPKM (Jurkat T cells): 49.538 FPKM
RCBTB2 FPKM (Jurkat T cells): 7.77 FPKM
RCOR2 FPKM (Jurkat T cells): 1.298 FPKM
RGS2 FPKM (Jurkat T cells): 3.39 FPKM
RHOU FPKM (Jurkat T cells): 1.378 FPKM
RNF19A FPKM (Jurkat T cells): 12.101 FPKM
RNF212 FPKM (Jurkat T cells): 1.401 FPKM
RORA FPKM (Jurkat T cells): 1.998 FPKM
RRAS2 FPKM (Jurkat T cells): 20.023 FPKM
RTN4R FPKM (Jurkat T cells): 1.548 FPKM
RUNX1 FPKM (Jurkat T cells): 28.867 FPKM
RUNX3 FPKM (Jurkat T cells): 28.166 FPKM
SASH3 FPKM (Jurkat T cells): 46.514 FPKM
SBK1 FPKM (Jurkat T cells): 5.945 FPKM
SCG2 FPKM (Jurkat T cells): 86.711 FPKM
SCHIP1 FPKM (Jurkat T cells): 1.333 FPKM
SEPT3 FPKM (Jurkat T cells): 0.994 FPKM
SEPT6 FPKM (Jurkat T cells): 44.841 FPKM
SEPT9 FPKM (Jurkat T cells): 39.741 FPKM
SERINC5 FPKM (Jurkat T cells): 3.312 FPKM
SERPINB8 FPKM (Jurkat T cells): 23.508 FPKM
SERPINE2 FPKM (Jurkat T cells): 3.911 FPKM
SERTAD1 FPKM (Jurkat T cells): 14.426 FPKM
SGK1 FPKM (Jurkat T cells): 105.258 FPKM
SH2D1A FPKM (Jurkat T cells): 16.781 FPKM
SH2D2A FPKM (Jurkat T cells): 22.586 FPKM
SH3TC1 FPKM (Jurkat T cells): 1.895 FPKM
SIVA1 FPKM (Jurkat T cells): 51.964 FPKM
SLAMF1 FPKM (Jurkat T cells): 0.275 FPKM
SLAMF7 FPKM (Jurkat T cells): 3.544 FPKM
SLAMF8 FPKM (Jurkat T cells): 5.828 FPKM
SLC22A1 FPKM (Jurkat T cells): 42.379 FPKM
SLC27A2 FPKM (Jurkat T cells): 41.908 FPKM
SLC29A4 FPKM (Jurkat T cells): 1.658 FPKM
SLC35E4 FPKM (Jurkat T cells): 1.517 FPKM
SLC35G2 FPKM (Jurkat T cells): 11.385 FPKM
SMAD1 FPKM (Jurkat T cells): 3.995 FPKM
SMOX FPKM (Jurkat T cells): 18.934 FPKM
SMPD1 FPKM (Jurkat T cells): 18.206 FPKM
SORBS1 FPKM (Jurkat T cells): 0.511 FPKM
SOX4 FPKM (Jurkat T cells): 55.775 FPKM
SPINT1 FPKM (Jurkat T cells): 1.712 FPKM
SPRY1 FPKM (Jurkat T cells): 4.901 FPKM
SPRY4 FPKM (Jurkat T cells): 7.991 FPKM
SPSB1 FPKM (Jurkat T cells): 9.593 FPKM
SPTBN2 FPKM (Jurkat T cells): 2.053 FPKM
SRGN FPKM (Jurkat T cells): 9.743 FPKM
SSBP2 FPKM (Jurkat T cells): 5.549 FPKM
ST3GAL6 FPKM (Jurkat T cells): 5.239 FPKM
STAT2 FPKM (Jurkat T cells): 36.117 FPKM
STAT3 FPKM (Jurkat T cells): 74.439 FPKM
STAU2 FPKM (Jurkat T cells): 5.719 FPKM
STMN3 FPKM (Jurkat T cells): 7.407 FPKM
STX1A FPKM (Jurkat T cells): 13.882 FPKM
SYK FPKM (Jurkat T cells): 6.222 FPKM
TAGAP FPKM (Jurkat T cells): 8.731 FPKM
TAL1 FPKM (Jurkat T cells): 18.466 FPKM
TAP2 FPKM (Jurkat T cells): 6.702 FPKM
TAPBPL FPKM (Jurkat T cells): 20.693 FPKM
TBC1D4 FPKM (Jurkat T cells): 13.191 FPKM
TBC1D5 FPKM (Jurkat T cells): 3.021 FPKM
TBKBP1 FPKM (Jurkat T cells): 22.205 FPKM
TCF3 FPKM (Jurkat T cells): 36.607 FPKM
TCF7 FPKM (Jurkat T cells): 11.184 FPKM
TCF12 FPKM (Jurkat T cells): 29.903 FPKM
TDRD9 FPKM (Jurkat T cells): 1.888 FPKM
TGFBR2 FPKM (Jurkat T cells): 36.254 FPKM
THEM6 FPKM (Jurkat T cells): 2.542 FPKM
THEMIS FPKM (Jurkat T cells): 35.627 FPKM
TIAF1 FPKM (Jurkat T cells): 9.375 FPKM
TIAM1 FPKM (Jurkat T cells): 9.551 FPKM
TIAM2 FPKM (Jurkat T cells): 0.301 FPKM
TLE1 FPKM (Jurkat T cells): 1.647 FPKM
TMCC3 FPKM (Jurkat T cells): 7.278 FPKM
TNFAIP3 FPKM (Jurkat T cells): 35.424 FPKM
TNFRSF10B FPKM (Jurkat T cells): 36.431 FPKM
TNFSF10 FPKM (Jurkat T cells): 49.452 FPKM
TNFSF14 FPKM (Jurkat T cells): 4.255 FPKM
TPM4 FPKM (Jurkat T cells): 178.336 FPKM
TPST2 FPKM (Jurkat T cells): 29.147 FPKM
TRAF3IP3 FPKM (Jurkat T cells): 11.237 FPKM
TRIB1 FPKM (Jurkat T cells): 4.108 FPKM
TRIM21 FPKM (Jurkat T cells): 42.08 FPKM
TTLL1 FPKM (Jurkat T cells): 3.295 FPKM
UBE2L6 FPKM (Jurkat T cells): 167.347 FPKM
UHRF1 FPKM (Jurkat T cells): 6.903 FPKM
VAMP1 FPKM (Jurkat T cells): 14.752 FPKM
VAT1 FPKM (Jurkat T cells): 40.336 FPKM
VAV1 FPKM (Jurkat T cells): 22.182 FPKM
WARS FPKM (Jurkat T cells): 112.259 FPKM
WDR76 FPKM (Jurkat T cells): 8.215 FPKM
XCL1 FPKM (Jurkat T cells): 1.144 FPKM
XCL2 FPKM (Jurkat T cells): 2.074 FPKM
XIRP1 FPKM (Jurkat T cells): 13.281 FPKM
XRCC6BP1 FPKM (Jurkat T cells): 9.204 FPKM
YPEL1 FPKM (Jurkat T cells): 4.38 FPKM
ZFP36L1 FPKM (Jurkat T cells): 136.279 FPKM
ZFP36L2 FPKM (Jurkat T cells): 9.774 FPKM
ZNF280D FPKM (Jurkat T cells): 2.132 FPKM
ZNF367 FPKM (Jurkat T cells): 2.274 FPKM
ZNF480 FPKM (Jurkat T cells): 6.823 FPKM
ZNF521 FPKM (Jurkat T cells): 1.965 FPKM
ZNF652 FPKM (Jurkat T cells): 2.469 FPKM
ZNF704 FPKM (Jurkat T cells): 0.183 FPKM
ZNF827 FPKM (Jurkat T cells): 1.372 FPKM
ZNFX1 FPKM (Jurkat T cells): 19.096 FPKM
ZP4 FPKM (Jurkat T cells): 5.182 FPKM
ZYX FPKM (Jurkat T cells): 85.489 FPKM
ADORA2A FPKM: 1.475 FPKM
AGK FPKM: 14.306 FPKM
ARHGEF3 FPKM: 8.674 FPKM
ASAP1 FPKM: 9.052 FPKM
ATG14 FPKM: 11.252 FPKM
ATP6V1B2 FPKM: 60.661 FPKM
BCL2L1 FPKM: 41.852 FPKM
C3 FPKM: 1.329 FPKM
C10orf54 FPKM: 0.487 FPKM
CABP1 FPKM: 1.689 FPKM
CCDC64 FPKM: 11.039 FPKM
CCL1 FPKM: 0.415 FPKM
CCL3 FPKM: 0.502 FPKM
CCL3L1 FPKM: 0.079 FPKM
CCL3L3 FPKM: 0.079 FPKM
CCL4 FPKM: 4.062 FPKM
CCL4L1 FPKM: 0.328 FPKM
CCL4L2 FPKM: 0.328 FPKM
CCL20 FPKM: 1.279 FPKM
CCND2 FPKM: 0.99 FPKM
CD27-AS1 FPKM: 4.613 FPKM
CD27 FPKM: 3.4 FPKM
CD55 FPKM: 12.082 FPKM
CD70 FPKM: 7.606 FPKM
CD97 FPKM: 21.496 FPKM
CD200 FPKM: 0.094 FPKM
COL27A1 FPKM: 5.729 FPKM
CREB5 FPKM: 1.966 FPKM
